From publication PMC3948622, “Docking, Synthesis and Antiproliferative Activity of N-Acylhydrazone Derivatives Designed as Combretastatin A4 Analogues” (PLoS ONE, 2014)
≈ marks a conversion by molar mass, not a printed value. Where two headings read alike, the source gives them in different places.

What was measured:
[1] = Aqueous solubility assay by ultraviolet spectroscopy; type: physicochemical; settings: water (saturated aqueous solution), thermodynamic from solid, 2 hours at 37°C, read-out: Aq. Solubility
Procedure: Ultraviolet spectroscopy was performed using Femto spectrophotometer. The wavelength used in solubility assay was determined by the -λ max characteristic of each compound. Spectra were analyzed in Femtoscan software. Mass spectrometry was obtained by positive ionization at Bruker AmaZon SL and data analyzed in Compass 1.3.SR2 software.
The solubility assay was performed considering the absorptivity of compounds in ultraviolet spectroscopy as described by Schneider and coworkers. The assay wavelength was determined by the λ max characteristic of each compound.
Saturated aqueous solutions were prepared (0.01 mg/mL) and were kept under stirring for 2 hours at 37°C. The supernatant was filtered in 0,45 µm filters and transferred to a quartz cuvette (10 mm) to spectra acquisition.
Solubility was determined by linear regression using as graph plots, solutions prepared by dilutions of the original solution in methanol. The data were obtained in triplicates and the mean values were used to the graph plots. The correlation coefficient (R^2) values were between 0.9972 and 0.9999.

[2] = test system: HL-60 (human leukemia); assay: In vitro antiproliferative MTT assay, HL-60; type: cell-based; settings: for IC50: Homo sapiens, HL-60; for SI Lymphocyte/ HL-60: IC50 for human lymphocytes/IC50 for cancer cell line
Procedure: (§1) The antiproliferative activity of compounds 5a–r was determined based on an MTT assay and using CA-4 as standard against the tumor cell lines: HL-60 (human leukemia), SF-295 (human glioblastoma), MDA-MB435 (melanoma), PC3M (prostate cancer), OVCAR-8 (ovaries adenocarcinoma), NCI-H258M (pulmonary bronchio-alveolar carcinoma) and HCT-8 (adenocarcinoma ileocecal) (Table 2). To determine the selectivity index of compounds 5a–r, their antiproliferative profile was also evaluated toward human lymphocytes (Table 2).
(§2) Compounds (0.009–5 µg/mL) were tested for cytotoxic activity against selected cancer cell lines: SF-295 (glioblastoma), HCT-8 (colon), MDAMB-435 (melanoma), HL60 (leukemia), PC3M (prostate cancer), OVCAR-8 (ovaries adenocarcinoma) and NCI-H258M (pulmonary bronchio-alveolar carcinoma). All cell lines were kindly obtained from the National Cancer Institute (Bethesda, MD, USA).Tumor cell proliferation was quantified through the ability of living cells to reduce the yellow dye 3-(4,5-dimethyl-2-thiazolyl)-2,5-diphenyl-2H-tetrazolium bromide (MTT, Sigma Aldrich)) to a purple formazan product and absorbance was measured at 595 nm (DTX-880, Beckman Coulter).

[3] = test system: SF-295 (human glioblastoma); assay: In vitro antiproliferative MTT assay, SF-295; type: cell-based; settings: for IC50: Homo sapiens, SF-295, read-out: IC50 SF295; for SI Lymphocyte/ SF-295: IC50 for human lymphocytes/IC50 for cancer cell line
Procedure: as §1, §2

[4] = test system: HCT-8 (adenocarcinoma ileocecal); assay: In vitro antiproliferative MTT assay, HCT-8; type: cell-based; settings: for IC50: Homo sapiens, HCT-8; for SI Lymphocyte/ HCT-8: IC50 for human lymphocytes/IC50 for cancer cell line
Procedure: as §1, §2

[5] = test system: MDA-MB435 (melanoma); assay: In vitro antiproliferative MTT assay, MDA-MB435; type: cell-based; settings: IC50 for human lymphocytes/IC50 for cancer cell line
Procedure: as §1, §2

[6] = test system: PC3M (prostate cancer); assay: In vitro antiproliferative MTT assay, PC3M; type: cell-based; settings: for IC50: Homo sapiens, PC-3M, Table 2, MTT; for SI Lymphocyte/ PC3M: IC50 for human lymphocytes/IC50 for cancer cell line
Procedure: as §1, §2

[7] = test system: OVCAR-8 (ovaries adenocarcinoma); assay: In vitro antiproliferative MTT assay, OVCAR-8; type: cell-based; settings: for IC50: Homo sapiens, OVCAR-8, Table 2, MTT; for SI Lymphocyte/ OVCAR-8: IC50 for human lymphocytes/IC50 for cancer cell line
Procedure: as §1, §2

[8] = test system: NCI-H358M (pulmonary bronchio-alveolar carcinoma); assay: In vitro antiproliferative MTT assay, NCI-H358M; type: cell-based; settings: for SI Lymphocyte/ NCI-H358M: IC50 for human lymphocytes/IC50 for cancer cell line; for IC50: NCI-H358M, Table 2, MTT
[9] = test system: human lymphocytes; assay: In vitro antiproliferative assay, human lymphocytes; type: cell-based; settings: Lymphocyte, Table 2
Procedure: as §1
To investigate the selective cytotoxic activity of the N-acylhydrazones derivatives (5a–r), their antiproliferative potency was also assessed toward human lymphocytes and the results were compared to the data from CA-4 ([…]). The selectivity index (SI), which was the IC50 for human lymphocytes/IC50 for cancer cell lines after treatment with CA-4 and N-acylhydrazones (5a–r), was calculated, as depicted in Table 3. […] The best comparative selectivity indices (CA-4 vs 5b) were obtained from the SF-295 (SI = 13), MDA-MB435 (SI = 42) and NCI-H258M (SI = 9.5) tumor cell lines, and the worst results were found for OVCAR-8 (SI = 0.5).

[10] = test system: MDA-MB435 (melanoma); assay: In vitro antiproliferative MTT assay, MDA-MB435; type: cell-based; settings: Homo sapiens, MDA-MB-435

Structure (SMILES) | solubility at 2 h [1] [µg/mL] | IC50 ([2]; Table 2, MTT) [nM] | SI Lymphocyte/ HL-60 [2] | IC50 ([3]; Table 2, MTT) [nM] | SI Lymphocyte/ SF-295 [3] | IC50 ([4]; Table 2, MTT) [nM] | SI Lymphocyte/ HCT-8 [4] | SI Lymphocyte/ MDA-MB345 [5] | IC50 [6] [nM] | SI Lymphocyte/ PC3M [6] | IC50 [7] [nM] | SI Lymphocyte/ OVCAR-8 [7] | SI Lymphocyte/ NCI-H358M [8] | IC50 [8] [nM] | IC50 [9] [nM] | melting point [°C] | IC50 ([10]; Table 2, MTT) [nM] | further results
COc1cc(C(=O)N/N=C/c2cc(C(C)(C)C)c(O)c(C(C)(C)C)c2)cc(OC)c1OC [Compound 5k, (E)-N′-(3,5-di-tert-butyl-4hydroxybenzylidene)-3,4,5-trimetoxybenzohydrazide] | 0.0236 (≈ 0.0533 µM) | > 25000 | 1.1 | > 25000 | 1 | > 25000 | 1 | 1 | > 25000 | 1 | > 25000 | 1 | 1 | > 25000 | > 56500 | 222 to 224 | > 25000 | 
COc1cc(C(=O)N/N=C/c2ccc(O)c(O)c2)cc(OC)c1OC [Compound 5e, (E)-N′-(3,4-dihydroxybenzylidene)-3,4,5-trimetoxybenzohydrazide] | 3.94 (≈ 11.4 µM) | 9300 | 0.82±0.02 | > 25000 |  | > 25000 |  | 0.06±0.00 | 24400 | 0.30±0.005 | > 25000 | 0.2±0.00 | 0.30±0.00 | > 25000 | 7360 | 160 | 11800 | 
COc1ccc(/C=N/NC(=O)c2cc(OC)c(OC)c(OC)c2)cc1OC [Compound 5g, (E)-N′-(3,4-dimethoxybenzylidene)-3,4,5-trimetoxybenzohydrazide] | 1.94 (≈ 5.18 µM) | 4430 | 4.10±0.10 | 18100 | 0.99±0.005 | 7050 | 2.50±0.005 | 8.41±0.09 | 12600 | 1.44±0.04 | 7110 | 2.55±0.05 | 1.80±0.005 | 10200 | 18000 | 190 to 191 | 2110 | 
COc1cc(/C=N/NC(=O)c2cc(OC)c(OC)c(OC)c2)cc(OC)c1OC [Compound 5i, (E)-3,4,5-trimethoxy-N′-(3,4,5-trimethoxybenzylidene)benzohydrazide] | 0.0894 (≈ 0.221 µM) | > 25000 | 1 | > 25000 | 1 | > 25000 | 1 | 1 | > 25000 | 1 | > 25000 | 1 | 1 | > 25000 | > 61800 | 232 | > 25000 | 
COc1cc(C(=O)N/N=C/c2ccc3c(c2)OCO3)cc(OC)c1OC [Compound 5h, (E)-N′-(benzo[d][1], [3]dioxol-5-ylmethylene)-3,4,5-trimetoxybenzohydrazide] | 1.34 (≈ 3.74 µM) | 3070 | 0.43±0.01 | 860 | 1.47±0.02 | 55800 | 0.02±0.002 | 13.17±1.37 | 1140 | 1.14±0.06 | 1090 | 1.16±0.04 | 0.62±0.02 | 2150 | 1310 | 222 to 223 | 110 | 
COc1cc(C(=O)N/N=C/c2ccc(C)cc2)cc(OC)c1OC [Compound 5o, (E)-3,4,5-trimethoxy-N′-(4-methylbenzylidene) benzohydrazide] | 6.93 (≈ 21.1 µM) | 4.8 | 1.59±0.09 | 93 | 0.08±0.00 | 46 | 0.15±0.005 | 0.21±0.01 | 12.7 | 0.56±0.04 | 8.2 | 0.91±0.01 | 0.009±0.001 | 891 | 7.3 |  | 35 | 
COc1cc(C(=O)N/N=C/c2ccc(Cl)cc2)cc(OC)c1OC [Compound 5q, (E)-N′-(4-chlorobenzylidene)-3,4,5-trimetoxybenzohyidrazide] | 28.4 (≈ 81.4 µM) | 36 | 1.85±0.15 | 72 | 0.85±0.05 | 46 | 1.25±0.05 | 3.07±0.22 | 27.5 | 2.10±0.10 | 24 | 2.75±0.25 | 0.05±0.005 | 1060 | 60 | 187 to 188 | 18 | 
COc1cc(C(=O)N/N=C/c2ccc(Br)cc2)cc(OC)c1OC [Compound 5r, (E)-N′-(4-bromobenzylidene) - 3,4,5-trimetoxybenzohyidrazide] | 0.262 (≈ 0.666 µM) | 10.9 | 3.07±0.83 | 59 | 0.49±0.05 | 22 | 1.57±0.17 | 1.81 | 12.7 | 2.29±0.20 | 7.3 | 4.02±0.28 | 0.19±0.01 | 167 | 31.4 |  | 18.3 | 
COc1ccc(/C=C\c2cc(OC)c(OC)c(OC)c2)cc1O [CA-4, Combretastatin A4] | 5.44 (≈ 17.2 µM) | 2.1 | 1.44±0.05 | 6.2 | 0.44±0.04 | 5.3 | 0.59±0.01 | 0.42±0.02 | 4.7 |  | 0.37 |  | 0.52±0.12 | 8 | 3.2 |  | 7.9 | 
COc1cc(C(=O)N/N=C/c2cccc(O)c2)cc(OC)c1OC [Compound 5c, (E)-N′-(3-hydroxybenzylidene)-3,4,5-trimetoxybenzohydrazide] | 5.68 (≈ 17.2 µM) | 1630 | 2.60±0.10 | 13000 | 0.32±0.02 | 4300 | 0.96±0.35 | 32.50±4.50 | 7510 | 0.58±0.01 | 5780 | 0.80±0.005 | 0.48±0.01 | 9500 | 4480 | 227 to 229 | 120 | 
COc1cc(C(=O)N(C)/N=C/c2ccccc2)cc(OC)c1OC [Compound 11, (E)-N′-benzylidene-3,4,5-trimethoxy-N-methylbenzohydrazide] |  |  |  |  |  |  |  |  |  |  |  |  |  |  |  | 71 to 73 |  | IC50 ([2]; Table 4): 30 nM; IC50 ([3]; Table 4): 3800 nM; IC50 ([4]; Table 4): 540 nM; IC50 ([10]; Table 4): 1910 nM
